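Cells were grown in 96-well plates and exposed to each compound for 48 hours at five concentrations; endpoints were interpolated linearly between bracketing concentrations, or set to the highest concentration if not reached. TGI: concentration producing complete growth inhibition.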
Experiments:
Assay in all cases: NCI-60 cell line screen, 48 h
DMS 273 small cell lung = system: DMS 273 small cell lung
SF-295 CNS = system: SF-295 CNS
HOP-18 NSCLC = system: HOP-18 NSCLC
NCI-H522 lung = system: NCI-H522 lung
DLD-1 colon = system: DLD-1 colon
LXFL 529 NSCLC = system: LXFL 529 NSCLC
XF 498 CNS = system: XF 498 CNS
DMS 114 small cell lung = system: DMS 114 small cell lung
RXF-631 renal = system: RXF-631 renal
COLO 205 colon = system: COLO 205 colon
SK-MEL-28 melanoma = system: SK-MEL-28 melanoma
M19-MEL melanoma = system: M19-MEL melanoma
KM20L2 colon = system: KM20L2 colon
SNB-78 CNS = system: SNB-78 CNS

| Structure (SMILES) | TGI (DMS 273 small cell lung) | TGI (SF-295 CNS) | TGI (HOP-18 NSCLC) | TGI (NCI-H522 lung) | TGI (DLD-1 colon) | TGI (LXFL 529 NSCLC) | TGI (XF 498 CNS) | TGI (DMS 114 small cell lung) | TGI (RXF-631 renal) | TGI (COLO 205 colon) | TGI (SK-MEL-28 melanoma) | TGI (M19-MEL melanoma) | TGI (KM20L2 colon) | TGI (SNB-78 CNS) |
| --- | --- | --- | --- | --- | --- | --- | --- | --- | --- | --- | --- | --- | --- | --- |
| Cc1cccc2[s+]snc12 | > 100 µM | > 100 µM | > 100 µM | 35.9 µM | 74.9 µM | > 92.5 µM | > 100 µM | > 100 µM | 43.4 µM | 50.8 µM | > 70.7 µM | > 100 µM | > 100 µM | > 100 µM |
| COC(=O)C1[C@@H](C(=O)OC)C12C=Cc1ccccc1C=C2 (some centres not stated) | > 100 µM | > 100 µM | – | > 100 µM | > 100 µM | > 100 µM | > 100 µM | > 100 µM | – | > 100 µM | > 100 µM | > 100 µM | > 100 µM | > 100 µM |
| C#C[C@]1(O)CCC2C3CCc4cc(Oc5nc(F)nc(-c6c7cc8ccccc8cc7c7n6CCS7)n5)ccc4C3CCC21C (some centres not stated) | > 100 µM | > 100 µM | > 100 µM | 62.7 µM | > 100 µM | > 100 µM | > 100 µM | 50.8 µM | – | 42.2 µM | > 100 µM | > 100 µM | 99.6 µM | > 100 µM |
| CCCn1c(SCC)c2cc3cc4ccccc4cc3cc2c1-c1nc(F)nc(F)n1 | > 100 µM | > 100 µM | – | > 100 µM | – | > 100 µM | > 100 µM | > 100 µM | > 100 µM | > 100 µM | > 100 µM | > 100 µM | > 100 µM | > 100 µM |
| CCCN1CN(C(C(=O)N[C@@H]2C(=O)N3C(C(=O)O)=C(C)CSC23)c2ccc(O)cc2)CSC1=S (some centres not stated) | > 100 µM | > 100 µM | > 100 µM | > 100 µM | > 100 µM | > 100 µM | > 100 µM | > 100 µM | – | > 100 µM | > 100 µM | > 100 µM | > 100 µM | > 100 µM |
| O=C1C(=O)c2ccccc2C(O)=C1CN(CCCl)CCCl | – | > 100 µM | – | > 100 µM | > 100 µM | > 100 µM | > 100 µM | – | > 100 µM | – | > 100 µM | > 100 µM | > 100 µM | > 100 µM |
| COc1cc(C=Nc2ccc(C(C)C)cc2)cc(OC)c1OC | > 100 µM | > 100 µM | > 100 µM | > 100 µM | > 100 µM | > 100 µM | > 100 µM | > 100 µM | – | > 100 µM | > 100 µM | > 100 µM | > 100 µM | > 100 µM |

Reference: PubChem BioAssay (NCI)
